# Measurements reported in US11390629B2, “1,5-disubstituted 1,2,3-triazoles are inhibitors of Rac/Cdc42 GTPases” (UNIVERSITY OF PUERTO RICO, priority 2016, dated 2022).
# “Also recorded” adds a separate entry of the source.
# Columns and labels:
# [1] = tested on: caspase-3/7 activity in MDA-MB-231 cells; assay: Caspase-Glo 3/7 apoptosis assay; format: cell-based, human; conditions: 0-1000 nM, 24 h, MDA-MB-231 and GFP-HER2-BM
# Procedure: (§1) Effect of MBQ-167 on cell survival.
# To evaluate whether the cell cycle arrest was accompanied by an increase in apoptosis, the activity of the effector caspases3/7 in whole cell populations (both attached and detached). […] To determine whether MBQ-167 induces anoikis, the relative levels of caspase-3/7 activities were analyzed in the attached and detached MDA-MB-231 cell populations following 24 h at 250 nM MBQ-167.
# Apoptosis was measured using a Caspase-Glo3/7 Luminescence Assay Kit as per manufacturer's instructions (Promega, Corp., Madison, Wis., USA). Following treatment of equal numbers of cells with vehicle or MBQ-167 for 24 h, Caspase-3/7 Glo reagent was added and incubated at room temperature for 60 min. Caspase-3/7 activities were determined by quantifying luminescence.
# Bcl-2, Bcl-xL, Mcl-1 = assay: Western blot of pro-survival proteins, MDA-MB-231; conditions: 250 nM, 24 h
# [2] = tested on: GFP-HER2-BM mammary fat pad tumors; assay: Mammary fat pad tumor growth, GFP-HER2-BM cells in nude mice; format: in vivo; conditions: for reduction in tumor growth: 65 days; for Optimal % Change in Tumor Size (% T/C): day 65, control = 100; for Time in Days for Doubling of Tumor size, 2^1: control 8; for Time in Days for Doubling of Tumor size, 2^2: control 14.5; for Time in Days for Doubling of Tumor size, 2^3: control 27.7; for Time in Days for Doubling of Tumor size, 2^4: control 33.3
# Procedure: FIGS. 6A-1, 6A-2, 6B, 6C, 6D, 6E. In-vivo efficacy of MBQ-167 in HER2-type breast cancer.
# To test the effect of MBQ-167 on mammary tumor progression, nude mice were used to establish mammary fatpad tumors from GFP-HER2-BM cells. One week following mammary tumor establishment, the mice were treated 3× a week with 0, 1, or 10 mg/kg BW MBQ-167 by i.p. for 65 days.
# Mice were treated with vehicle (12.5% ethanol, 12.5% Cremophor (Sigma-Aldrich, St. Louis, Mo.), and 75% 1×PBS pH 7.4), or 1 or 10 mg/kg BW MBQ-167 by i.p. injection in a 100 μL volume 3× a wk. Treatments continued until sacrifice at day 65.
# MCF10A and MCF-7 cells = assay: Bright field cell phenotype, epithelial cells; format: cell-based, human; conditions: up to 500 nM
# Procedure: FIGS. 2A, 2B, 2C. Breast cancer cell phenotype following MBQ-167 treatment.
# Human breast cancer cells were visualized by bright field microscopy following MBQ-167 treatment. At ≥100 nM, starting at six hours, MBQ-167 induced a loss of polarity in metastatic breast cancer cells. […] On the other hand, non-cancer mammary epithelial MCF10A and epithelial breast cancer MCF-7 cells were resistant to MBQ-167 and remained polarized and attached to each other and the substratum (FIG. 2A).
# MDA-MB-231 cells = assay: Cell cycle progression by flow cytometry (PI), MDA-MB-231; format: cell-based, human; conditions: 250 nM; listed as MBQ-167
# Procedure: as §1
# MDA-MB-231 cells were incubated with 0 or 250 nM MBQ-167 for 48 h and all cells (detached and attached) were stained with PI, as in (27). Cell cycle stage was analyzed using a four-color flow cytometer (FACSCalibur, BD Biosciences, San Jose, Calif.). A total of 20,000 events were analyzed for each sample. List-mode files were collected using Cell Quest software 3.3 and analyzed using the Flow Jo software vX.0.7 (BD Biosciences, San Jose, Calif.).
# PAK = assay: Western blot of PAK activity, MCF-7 cells; format: cell-based, human; conditions: MCF-7, 250 nM, 24 h; listed as MBQ-167
# [3] = tested on: Saccharomyces cerevisiae (expresses only Cdc42); assay: Yeast bud polarity and growth; conditions: 100 microM
# [4] = Cell viability assay (CellTiter 96 / MTT), MDA-MB-231; conditions: human
# PAK1 and PAK2 = assay: Western blot of PAK signaling (p-PAK, p-LIMK, p-cofilin), MDA-MB-231; format: cell-based, human; conditions: for reduction of PAK activity compared to vehicle: MDA-MB-231 and GFP-HER2-BM
# Procedure: To investigate the effect of MBQ-167 on Rac/Cdc42 signaling, its effect on the major Rac/Cdc42 downstream effector PAK was investigated. The phosphorylation status of several PAK residues was analyzed by western blotting, as a measure of its activity. At 250 nM, 24 h treatment with MBQ-167 inhibited PAK1 and PAK2 phosphorylation at the T423/T402 and S199/S192 residues in the detached population of MDA-MB-231 cells. […] Even though PAK1^T423 phosphorylation was not inhibited in the attached cells, the reduction in the homologous PAK2 phosphorylation sites indicates a preferential inhibition of PAK2 in the attached cells (FIGS. 4A-1, 4A-2, FIG. 4B-1). […] The decrease in cofilin phosphorylation was evident after 12 h following 250 nM MBQ-167 (FIG. 4C), indicating activation of cofilin, which account for the observed actin cytoskeletal restructuring (FIG. 2B). […] Similarly, in the NCI-N87 human metastatic gastric cancer cell line, MBQ-167 inhibited the viability and the activity of PAK isoforms PAK1 and PAK4, which have been implicated in gastric cancer malignancy (FIG. 8B).
# [5] = tested on: c-Myc, Bcl-XL, Bcl-2, BAD; assay: Expression of oncogenes and survival proteins, MDA-MB-435 cells; format: cell-based, human; conditions: 150 nM, 24 h
# Description: Studies from a number of cancer types have shown that Rac/Cdc42/PAK signaling can induce cell survival and evade apoptosis. Therefore, the decreased cell viability and increased apoptosis by MBQ-167, at concentrations that inhibit both Rac and Cdc42, is predicted to be due to dual inhibition of Rac and Cdc42 function.
# Rac [6] = assay: Rac activation pulldown (p21-binding domain of PAK) and western blot, MDA-MB-231 cells; format: cell-based, human; conditions: for decrease in Rac activation: 250 nM, 24 h; for inhibition in Rac activity: 250 or 500 nM, 6 h
# Cdc42 = Cdc42 (Homo sapiens, UniProt P60953); assay: Cdc42 activity (Table 1A); format: cell-based; conditions: class by % inhibition at stated concentration
# Sequence of Cdc42 (P60953 whole entry): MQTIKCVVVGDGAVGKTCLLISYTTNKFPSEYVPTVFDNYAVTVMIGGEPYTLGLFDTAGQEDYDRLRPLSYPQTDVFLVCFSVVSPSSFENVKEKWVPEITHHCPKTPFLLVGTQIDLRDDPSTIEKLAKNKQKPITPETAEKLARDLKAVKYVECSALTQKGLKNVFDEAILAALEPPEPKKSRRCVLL
# Rac [7] = tested on: Rac
structure (smiles),measurement,setting,value
"CCn1c2ccccc2c2cc(-n3nncc3-c3ccccc3)ccc21 [I-1, 9-ethyl-3-(5-phenyl-1H-1,2,3-triazol-1-yl)-9H-carbazole]",caspase-3/7 activity in whole cell populations,[1],dose-dependent increase
same,"expression of pro-survival proteins Bcl-2, Bcl-xL, Mcl-1","Bcl-2, Bcl-xL, Mcl-1",significant decrease
same,reduction in tumor growth,[2]; 1.0 mg/kg BW i.p. 3x a week,~80%
same,Optimal % Change in Tumor Size (% T/C),[2]; 1 mg/kg BW i.p. 3x a week,58%
same,"Time in Days for Doubling of Tumor size, 2^1",[2]; 1 mg/kg BW,10 days
same,"Time in Days for Doubling of Tumor size, 2^2",[2]; 1 mg/kg BW,30 days
same,"Time in Days for Doubling of Tumor size, 2^3",[2]; 1 mg/kg BW,57 days
same,"Time in Days for Doubling of Tumor size, 2^4",[2]; 1 mg/kg BW,never reached
same,reduction in tumor growth,[2]; 10 mg/kg BW i.p. 3x a week,~95%
same,Optimal % Change in Tumor Size (% T/C),[2]; 10 mg/kg BW i.p. 3x a week,9%
same,reduction of mammary fat pad tumor size,"[2]; 10 mg/kg BW, by 2 months",91%
same,"Time in Days for Doubling of Tumor size, 2^1",[2]; 10 mg/kg BW,11 days
same,"Time in Days for Doubling of Tumor size, 2^2",[2]; 10 mg/kg BW,30 days
same,"Time in Days for Doubling of Tumor size, 2^3",[2]; 10 mg/kg BW,never reached
same,"Time in Days for Doubling of Tumor size, 2^4",[2]; 10 mg/kg BW,never reached
same,inhibition of mammary tumor growth and metastasis,[2]; immunocompromised mice,~90%
same,cell rounding and detachment phenotype,MCF10A and MCF-7 cells,resistant
same,effect on cell cycle,MDA-MB-231 cells,significantly arrested the cell cycle of MDA-MB-231 cells in the G2/M phase; also recorded: G2/M phase arrest
same,effect on PAK activity,PAK,did not affect; also recorded: does not inhibit
same,effect on yeast bud polarity and growth,[3],inhibited yeast bud polarity and growth
same,"viability at 24 h, 5 µM","[4]; MDA-MB-231, GFP-HER2-BM, MCF-7 and MCF-10 cells",~75%
same,"viability at 24 h, 0.3 µM",[4]; MDA-MB-231 cells,100%
same,LIMK (Y507/T508) and cofilin (S3) phosphorylation,PAK1 and PAK2; 250 nM,both decreased
same,phosphorylation of PAK1 S144,"PAK1 and PAK2; 250 nM, 24 h",dramatic increase
same,PAK1 and PAK2 phosphorylation at T423/T402 and S199/S192,"PAK1 and PAK2; 250 nM, 24 h, detached population",inhibited
same,reduction of PAK activity compared to vehicle,PAK1 and PAK2; attached population,~25%
same,reduction of PAK activity compared to vehicle,PAK1 and PAK2; detached cells,90%
same,"expression of c-Myc, Bcl-XL, Bcl-2",[5],reduced expression
same,pro-apoptotic protein BAD,[5],concomitant increase
same,decrease in Rac activation,Rac [6]; attached cells,~25%
same,decrease in Rac activation,Rac [6]; detached cells,~75%
same,inhibition in Rac activity,Rac [6]; attached cell population,10-20%
same,inhibition in Rac activity,Rac [6]; detached population,40-50%
same,Cdc42 activity,Cdc42,A (>50% inhibition at 250 nM)
same,Rac Activity (Active Rac/Total Rac),"Rac [7]; 250 nM, 24 h, MCF-7 cells, vehicle = 1.0",1.075 ± 0.3
same,effect on Rac activity,"Rac [7]; MCF-7, 250 nM, listed as MBQ-167",insensitive; also recorded: does not affect
